# Tests used:
# Format in all cases: cell-based
# HMEC1 = experiment: Inhibition of cells growth by colorimetric assay (SRB), HMEC1
# Experimental: 2°.—Inhibition of Cells Growth by Colorimetric Assay.
# A colorimetric type of assay, using sulforhodamine B (SRB) reaction has been adapted for a quantitative measurement of cell growth and viability [following the technique described by Philip Skehan, et al. (1990), New colorimetric cytotoxicity assay for anticancer drug screening, J. Natl. Cancer Inst., 82:1107-1112]
# This form of the assay employs 96 well cell culture microplates of 9 mm diameter (Faircloth, 1988; Mosmann, 1983). Most of the cell lines are obtained from American Type Culture Collection (ATCC) derived from different human cancer types.
# Cells are maintained in RPMI 1640 10% FBS, supplemented with 0.1 g/l penicillin and 0.1 g/l streptomycin sulfate and then incubated at 37° C., 5% CO2 and 98% humidity. For the experiments, cells were harvested from subconfluent cultures using trypsin and resuspended in fresh medium before plating.
# Cells are seeded in 96 well microtiter plates, at 5×10^3 cells per well in aliquots of 195 μl medium, and they are allowed to attach to the plate surface by growing in drug free medium for 18 hours. Afterward, samples are added in aliquots of 5 μl in a ranging from 10 to 10^−8 μg/ml, dissolved in DMSO/EtOH/PBS (0.5:0.5:99). After 48 hours exposure, the antitumor effect are measured by the SRB methodology: cells are fixed by adding 50 μl of cold 50% (wt/vol) trichloroacetic acid (TCA) and incubating for 60 minutes at 4° C. Plates are washed with deionized water and dried. One hundred μl of SRB solution (0.4% wt/vol in 1% acetic acid) is added to each microtiter well and incubated for 10 minutes at room temperature. Unbound SRB is removed by washing with 1% acetic acid. Plates are air dried and bound stain is solubilized with Tris buffer. Optical densities are read on a automated spectrophotometric plate reader at a single wavelength of 490 nm.
# The values for mean+/−SD of data from triplicate wells are calculated. Some parameters for cellular responses can be calculated: GI=growth inhibition, TGI=total growth inhibition (cytostatic effect) and LC=cell killing (cytotoxic effect).
# Obtained results may predict the usefulness of a certain drug as a potential cancer treatment. For this technique, compounds which show GI50 values smaller than 10 μg/ml are selected to continue with further studies. GI50's data allow to predict that not only could a drug be cystostatic, but also it could have a potential in terms of tumor reduction.
# HT-29 = experiment: Inhibition of cells growth by colorimetric assay (SRB), HT-29
# Procedure, shortened: (§1)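 Human cancer cells (5×10^3/well) attached 18 h in RPMI 1640 10% FBS, then exposed 48 h at 37°C to compounds from 10 to 10^−8 μg/ml in DMSO/EtOH/PBS. TCA-fixed, SRB-stained, OD read at 490 nm; GI, TGI and LC derived from triplicate wells.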
# A-549 = experiment: Inhibition of cells growth by colorimetric assay (SRB), A-549
# Procedure, shortened: as §1
structure (smiles),measurement,setting,value
COc1cc2c(cc1OC(=O)OC(C)(C)C)CCN[C@]21CS[C@@H]2c3c(OC(C)=O)c(C)c4c(c3[C@H](COC1=O)N1C2[C@H]2c3c(cc(C)c(OC)c3OC(C)C)C[C@@H]([C@@H]1C#N)N2C)OCO4 (stereo partly drawn) [Compound 46],TGI HMEC-1,"HMEC1; HMEC-1, SRB, 48 hours exposure",5.18E-07
same,GI50,"HMEC1; Homo sapiens, HMEC-1, 48 h, read-out: GI50 HMEC-1",152 nM
same,LC50,"HMEC1; Homo sapiens, HMEC-1, 48 h, read-out: LC50 HMEC-1, HMEC-1, SRB, 48 hours exposure",11000 nM
same,TGI HT-29,"HT-29; HT-29, SRB, 48 hours exposure",1.95E-06
same,GI50,"HT-29; Homo sapiens, HT-29, 48 h, read-out: GI50 HT-29",398 nM
same,LC50 (concentration for 50% cell killing),"HT-29; Homo sapiens, HT-29, 48 h, read-out: LC50 HT-29, HT-29, SRB, 48 hours exposure",11000 nM
same,TGI A-549,"A-549; A-549, SRB, 48 hours exposure",4.06E-07
same,GI50,"A-549; Homo sapiens, A549, 48 h, read-out: GI50 A-549",179 nM
same,LC50 (concentration for 50% cell killing),"A-549; Homo sapiens, A549, 48 h, read-out: LC50 A-549, A-549, SRB, 48 hours exposure",927 nM

# From patent publication US7759345B2, “Antitumoral derivatives of ET-743” (priority 2001, dated 2010)
